The data set deals with hERG potassium channel (Homo sapiens, UniProt Q12809). The experiment in a line: in vitro.

Structures are written as SMILES. Like-named read-outs stand apart in the source and are kept apart here.

hERG potassium channel, sequence (Q12809 whole entry): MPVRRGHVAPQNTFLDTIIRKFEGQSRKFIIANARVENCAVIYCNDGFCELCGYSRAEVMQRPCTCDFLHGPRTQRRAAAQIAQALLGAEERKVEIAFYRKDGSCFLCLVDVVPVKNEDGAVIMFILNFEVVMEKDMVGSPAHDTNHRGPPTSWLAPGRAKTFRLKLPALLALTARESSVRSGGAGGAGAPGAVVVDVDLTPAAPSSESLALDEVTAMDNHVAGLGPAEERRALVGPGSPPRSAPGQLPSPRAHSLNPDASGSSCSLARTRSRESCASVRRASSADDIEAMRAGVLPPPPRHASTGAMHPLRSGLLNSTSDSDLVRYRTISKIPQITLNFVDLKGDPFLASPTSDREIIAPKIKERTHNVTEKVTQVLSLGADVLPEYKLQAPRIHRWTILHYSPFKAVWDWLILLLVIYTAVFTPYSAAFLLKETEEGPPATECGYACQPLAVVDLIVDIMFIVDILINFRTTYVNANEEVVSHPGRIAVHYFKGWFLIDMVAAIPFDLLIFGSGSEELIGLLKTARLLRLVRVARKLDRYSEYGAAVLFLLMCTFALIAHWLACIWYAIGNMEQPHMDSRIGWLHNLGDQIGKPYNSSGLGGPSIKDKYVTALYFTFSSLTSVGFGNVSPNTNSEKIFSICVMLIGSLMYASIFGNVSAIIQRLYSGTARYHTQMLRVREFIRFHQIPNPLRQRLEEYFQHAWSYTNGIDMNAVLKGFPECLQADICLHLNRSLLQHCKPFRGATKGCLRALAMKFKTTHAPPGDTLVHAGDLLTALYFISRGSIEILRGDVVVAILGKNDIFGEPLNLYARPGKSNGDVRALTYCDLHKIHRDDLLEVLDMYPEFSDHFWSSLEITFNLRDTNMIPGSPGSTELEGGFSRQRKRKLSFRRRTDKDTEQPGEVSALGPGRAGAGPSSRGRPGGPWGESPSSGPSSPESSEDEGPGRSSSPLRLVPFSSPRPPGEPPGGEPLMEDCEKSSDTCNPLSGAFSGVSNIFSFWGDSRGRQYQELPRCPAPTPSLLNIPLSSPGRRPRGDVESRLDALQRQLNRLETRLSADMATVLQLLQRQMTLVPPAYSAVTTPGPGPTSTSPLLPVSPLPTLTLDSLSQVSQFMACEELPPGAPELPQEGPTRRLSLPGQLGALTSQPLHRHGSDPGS

For `CN(C)CCCN(C)Cc1c(-c2ccccc2F)nn(C)c1Cl` [s_270004____10205916____16947572], the inhibition (in general, the relative decrease from the control value, in per cent) at 10 µM (% inhibition) was 17.6%.
The same measure, in the same setting: the same measure for `CC(=Cc1ccccn1)C(=O)N(CCN(C)C)c1ccccc1` [s_11____2264406____11762612]: 18.8%.
With `CN(C)CCc1nc2ccccc2n1CCc1ccccc1` [GMD_12737], the inhibition at 10 µM (% inhibition) is 45.4%.
For `CN(C)CCN(Cc1ccccc1F)C(=O)N1CCSc2ncccc21` [s_272164____9389146____17325014], under “% inhibition”, the inhibition at 10 µM was 37.3%.
Take `CN(C)CCN(Cc1nccn1C)c1nc2cc(Cl)ccc2s1` [s_27____16636988____14057938]: the inhibition at 10 µM (% inhibition) was determined as 89.1%.
In the case of `CN(C)CCCn1nc(-c2ccccc2Cl)c2ccccc2c1=O` [GMD_16666], for the setting “% inhibition”, the inhibition at 10 µM came out at 10.6%.
The same measure, in the same setting: the same measure for `CN(C)CCN(Cc1ccccc1)C(=O)c1cc(-c2ccccn2)ccc1Cl` [s_527____284286____7794996]: 55%; for `Clc1ccccc1N(CCN1CCOCC1)Cc1cc2ncccc2s1` [s_2230____12297302____16648172]: 66%; for `CC(=Cc1ccccc1Cl)C(=O)N(CCN(C)C)c1ccccn1` [s_11____17828754____7832710]: 48.4%.
The same measure, in the same setting: the same measure for `COCCN(CCN(C)C)C(=O)c1cccnc1Oc1ccc(Cl)cc1Cl` [s_22____3489604____2009120]: 48.6%; for `CN(C)CCN(Cc1ccsc1)C(=O)c1cc2c(Cl)cncc2s1` [s_11____10910498____13033826]: 79.5%; for `CN(C)CCN(Cc1cccc(Cl)c1)C(=O)N1CCSc2ccncc21` [s_272164____9389444____9369516]: 75.9%.
Still for that read-out and setting: the result for `COc1cc(C(=O)N(CCN(C)C)c2ccccc2)c2ncccc2c1` [s_11____2264406____15769708] reads 22.5%; that for `CN(C)CCN(Cc1ccccc1F)C(=O)c1cccc2ncccc12` [s_527____7348186____237975], 1.57%; that for `Cc1ccc(C(=O)N(CCN(C)C)Cc2ccccc2)c2ncccc12` [s_527____284286____13308974], 69.2%.
Consider `CN(CCN(C)C(=O)c1cccnc1N(C)C)Cc1cccc(Cl)c1`, for which the inhibition at 10 µM (% inhibition) is 17.1%.
Take `CN(C)CCN(Cc1nccn1C)C(=O)c1ccn(-c2ccccc2Cl)n1` [s_22____16636986____2366818]: the inhibition at 10 µM (% inhibition) was 25.8%.
Consider `CN(C)CCc1nc2ccccc2n1Cc1ccc(F)cc1` [GMD_9161], for which, under “% inhibition”, the inhibition at 10 µM stood at 6.04%.
`CSc1ncccc1-c1nn(CCN(C)C)c(=O)c2ccccc12` [NBI1100648]: the inhibition at 10 µM (% inhibition) was found to be 44.2%.
`Cc1ccc2c(C(=O)N(CCN(C)C)c3ccccn3)ccnc2c1Cl` [s_11____17828754____14179334]: the inhibition at 10 µM (% inhibition) was 29.9%.
Turning to `CN(C)CCC(Sc1nccn1Cc1ccccn1)c1ccccc1` (centres unmarked) [s_7____4839872____13940010], the inhibition at 10 µM (% inhibition) was 5.79%.
Still for that read-out and setting: the result for `Cc1cc2nc(Cl)nc(N(CCN(C)C)Cc3nccn3C)c2s1` [s_27____16636988____12112620] reads 71.2%; that for `CN(C)CCN(Cc1cccs1)Cc1cc2cnn(C)c2nc1Cl` [s_270004____10206112____16971162], 78.3%.
Still for that read-out and setting: the same measure for `CN(C)CCCN(Cc1ccc(Cl)c(Cl)c1)c1cnc2ccccc2n1` [s_27____7425384____262944]: 93.6%; for `CN(C)CCN(Cc1ccccc1F)c1ncc(Cl)cc1Cl` [s_27____7100864____12221638]: 86.4%; for `CN(C)CCN(Cc1ccccc1F)C(=O)c1c(Cl)ccc2cccnc12` [s_527____7348186____16891240]: 59.1%.
For `Cc1cccc(CN(CCN(C)C)C(=O)C2=Cc3ccc(Cl)cc3OC2)c1` [s_22____3218898____13770932], the inhibition at 10 µM (% inhibition) is 94.3%.
As for `CN(C)CCn1nc(-c2ccncc2)c2ccccc2c1=O` [NBI1099472], the inhibition at 10 µM (% inhibition) was determined as 15%.
Turning to `CN(C)CCN(Cc1ccc(F)c(F)c1)C(=O)c1ccnc(Cl)c1Cl` [s_22____2224104____12421166], the inhibition at 10 µM (% inhibition) stood at 23.5%.
As for `CN(C)CCN(Cc1ccccc1)Cc1c(Cl)cccc1-n1ccnc1` [s_270004____10205888____17057166], under “% inhibition”, the inhibition at 10 µM worked out at 71.1%.
As to `CN(C)CCN(Cc1ccc(F)cc1F)C(=O)c1cc(Br)ncc1Cl` [s_11____4836304____10207328], the inhibition at 10 µM (% inhibition) was determined as 28.7%.
As for `CN(C)CCN(C(=O)c1cccc2ncccc12)c1ccccc1` [s_11____2264406____15260550], the inhibition at 10 µM (% inhibition) came to 21.8%.
Regarding `CN(C)CCn1nc(-c2ccccc2)c2ccccc2c1=O` [GMD_24043], the inhibition at 10 µM (% inhibition) came to 60.1%.
On to `CN(C)CCCN(Cc1ccc(Cl)c(Cl)c1)C(=O)c1nccnc1Cl` [s_22____1500308____12360522], for which the inhibition at 10 µM (% inhibition) came out at 57.7%.
Still for that read-out and setting: the same measure for `CN(C)CCn1nc(-c2cccs2)c2ccccc2c1=O` [NBI1099533]: 9.92%; for `COCCN(CCN(C)C)Cc1c(Cl)cccc1Oc1ccccc1` [s_270004____10206068____8363900]: 99%.
Same read-out and setting: the same measure for `CN(C)CCN(Cc1ccccc1F)C(=O)c1cccc2cccnc12` [s_11____4836284____101939]: 55%.
In the case of `CN(C)CCN(Cc1cccc(OCc2ccc(F)cc2)c1)Cc1nccn1C` [s_270004____16637008____8127840], the inhibition at 10 µM (% inhibition) stood at 91.3%.
With `CN(C)CCN(Cc1ccccc1F)C(=O)Cc1c[nH]c2nccc(Cl)c12` [s_22____1322108____13142180], the inhibition at 10 µM was determined as 38.7%.
For the molecule `CN(C)CCn1nc(-c2cccnc2)c2ccccc2c1=O` [GMD_36918], the inhibition at 10 µM (% inhibition) was 2.87%.
`Cc1cccc2c(C(=O)N(CCN(C)C)Cc3ccccc3F)nccc12` [s_527____7348186____14188826]: the inhibition at 10 µM (% inhibition) is 52.7%.
Still for that read-out and setting: the result for `CN(C)CCCSc1nnc(-c2cnccn2)n1-c1ccc(Cl)cc1` [s_7____7285292____9475634] reads 32.1%; that for `Cc1ccccc1Cn1c(CCN(C)C)nc2ccccc21` [GMD_8492], 9.23%.
For `CN(CCCN(C)C(=O)c1ccnc2ccsc12)C(=O)c1cncc(Cl)c1`, where the note is “% inhibition”, the inhibition at 10 µM was found to be 2.59%.
The same measure, in the same setting: the result for `CN(C)CCc1nc2ccccc2n1Cc1ccccc1Cl` [GMD_7286] reads 51.3%; that for `CN(C)CCn1nc(-c2cncc(Cl)c2)c2ccccc2c1=O` [NBI1099473], 86.1%.
Same read-out and setting: the same measure for `CN(C)CCN(CCCc1ccccc1)C(=O)c1cn(C)c2ccccc12` [s_22____2161756____115777]: 63.8%; for `CN(C)CCN(Cc1nccn1C)c1cc(C(F)F)nc2ccc(Cl)cc12` [s_27____16636988____10213920]: 61%.
Consider `CN(C)CCN(Cc1ccccc1F)C(=O)c1nccc2ncccc12` [s_527____7348186____14775532], for which the inhibition at 10 µM (% inhibition) is 33.1%.
On the same count and under the same terms, the same measure for `CN(C)CCn1nc(-c2ccccn2)c2ccccc2c1=O` [GMD_13601]: 16.6%; for `CN(C)CCN(Cc1cccc(F)c1)C(=O)CSc1nc2ccccc2n1C` [s_22____2224108____339636]: 75.6%; for `Cc1csc2ccnc(N3CCOCC4(COCCN4Cc4ccccc4)C3)c12` (centres unmarked) [s_27____15756872____16607386]: 62.1%.
Still for that read-out and setting: the same measure for `CN(C)CCN(Cc1nccn1C)c1nc(-c2ccccn2)nc2sccc12` [s_27____16636988____12321872]: 91.6%; for `CC1CCCCC1N=c1scc(-c2ccnn2C)n1N=Cc1ccc(Cl)cn1` (centres unmarked) [s_1____86334____13026574____11759950]: -2.58%.
Take `Cc1ccc2cc(C(=O)N(CCN(C)C)Cc3ccccc3F)ccc2n1` [s_527____7348186____7593650]: the inhibition at 10 µM (% inhibition) is 21.8%.
On the same count and under the same terms, the result for `COc1c(Cl)cc(C(=O)N(CCN(C)C)C2CCCCC2)c2ncccc12` [s_22____4639446____15428718] reads 42.7%.
Regarding `CN(C)CCOc1ccccc1-c1cn(C)c2cccnc12` [s_271570____11676396____16733458], under “% inhibition”, the inhibition at 10 µM is 63.8%.
As to `CN(C)CCC(Sc1ccncc1F)c1ccccc1` (centres unmarked) [s_7____14325654____13940010], the inhibition at 10 µM (% inhibition) turned out to be 47.3%.
Still for that read-out and setting: the same measure for `CN(Cc1sccc1Cl)C[C@H]1CCCCN1C(=O)c1ncccc1F`: 27.4%; for `CN(C)CCN(CCO)Cc1csc(-c2c(Cl)cccc2Cl)n1` [s_2230____15141024____14479640]: 9.6%; for `CN(C)CCCN(Cc1ccc(Cl)c(Cl)c1)C(=O)c1nccc2ncccc12` [s_527____1500312____14775532]: 40%.
Same read-out and setting: the result for `CN(C)CCN(Cc1ccccc1)C(=O)N1CCSc2ccncc21` [s_272164____9389444____9363352] reads 31.1%; that for `Cc1ccc(-c2nn(CN(C)CCC3CCOCC3)c(=O)c3ccccc23)cc1` [m_26____7043632____590162], 7.12%.
The same measure, in the same setting: the same measure for `CN(C)CCCn1nc(-c2ccncc2)c2ccccc2c1=O` [NBI1099478]: 23.4%; for `CN(C)c1ncccc1CN1CCN(C(=O)c2c(Cl)cccc2Cl)CC1` [s_270004____8133704____10229386]: 2.59%; for `CN(C)CCc1nc2ccccc2n1Cc1ccc(F)c(F)c1` [GMD_9634]: 16.1%.
For the molecule `Cc1cccc2c(C(=O)N(CCN(C)C)c3ccccn3)cnn12` [s_11____17828754____16474570], the inhibition at 10 µM (% inhibition) is 20.8%.
Same read-out and setting: the result for `Clc1ccccc1-n1ccc(CNC2(c3ncccn3)CCOCC2)n1` [s_2230____13270592____17316260] reads -0.942%; that for `CN(C)CCN(Cc1ccccc1)C(=O)c1ncccc1Cl` [s_11____117338____10437082], 9.12%.
For the molecule `CN(C)CCCN(Cc1ccc(Cl)c(Cl)c1)C(=O)c1ccn2c1CSCC2` [s_527____1500312____16910956], for the setting “% inhibition”, the inhibition at 10 µM stood at 66.8%.
For the molecule `CN(C)CCN(CCc1ccccc1)C(=O)c1csc2cc(Cl)cnc12` [s_11____764634____11618976], the inhibition at 10 µM (% inhibition) came out at 88.2%.

For the origin of these results see article doi:10.1101/2023.02.14.528391v1 (biorxiv, 2023).
